Results: patent US8685443B2, “Sequestering subunit and related compositions and methods” (Alpharma Pharmaceuticals LLC, priority 2002, dated 2014)
Structures can show the parent of a compound that is named as a salt.

How the values were obtained:
[1] = in comparison to a 15 mg dose of hydrocodone
opioid receptors = conditions: after oral administration; cited from earlier work
[2] = hydrochloride salt; cited from earlier work
mu over delta sites = conditions: cited from earlier work

Compound	Calculated Dose (equianalgesic dose) [1] [mg]	also measured
COc1ccc2c3c1O[C@H]1[C@@H](O)C=C[C@H]4[C@@H](C2)N(C)CC[C@@]341 [Codeine]	90.0	–
COc1ccc2c3c1OC1C(=O)CC[C@H]4[C@@H](C2)N(C)CC[C@]314 (stereo partly drawn) [Hydrocodone, 4,5-epoxy-3-methoxy-17-methylmorphinan-6-one]	15.0	–
CN1CC[C@]23CCCC[C@H]2[C@H]1Cc1ccc(O)cc13 [Levorphanol]	1.8	–
CCC(=O)C(CC(C)N(C)C)(c1ccccc1)c1ccccc1 (stereo not drawn) [Methadone]	9.0	–
COc1ccc2c3c1OC1C(=O)CC[C@@]4(O)[C@@H](C2)N(C)CC[C@]314 (stereo partly drawn) [Oxycodone, 4,5-epoxy-14-hydroxy-3-methoxy-17-methylmorphinan-6-one]	13.5	–
C[C@H]1[C@H]2Cc3ccc(O)cc3[C@]1(C)CCN2CC1CC1 [cyclazocine]	–	duration of effect (opioid receptors): ~24 h
O=C1CC[C@@]2(O)[C@H]3Cc4ccc(O)c5c4[C@@]2(CCN3CC2CC2)[C@H]1O5 [hydrochloride salt of naltrexone, naltrexone]	–	solubility in water [2]: about 100 mg/cc
O=C1CC[C@@]2(O)[C@H]3Cc4ccc(O)c5c4[C@@]2(CCN3CC2CC2)[C@H]1O5 [naltrexone]	–	blocking action, mu over delta sites (mu over delta sites): strong preferential blocking action against mu over delta sites
Meperidine	135.0	–
